Values of other authors in patent publication US20220040100A1, “Stable Acyclovir Sodium Parenteral Formulation” (RK Pharma Solutions LLC, priority 2020, published 2022).
Counter-ions that a name gives are not always drawn.

Conditions: lyophilized powder reconstituted with Sterile Water for Injection, 50 mg/mL of acyclovir

Nc1nc2c(ncn2COCCO)c(=O)[nH]1 [Acyclovir sodium, 2-amino-1,9-dihydro-9-[(2-hydroxyethoxy)methyl]-6H-purin-6-one monosodium salt]
pH of the reconstituted solution: approximately 11
